Measured values: US4355170A, “1-Substituted imidazole derivatives” (Ono Pharmaceutical Co., Ltd., priority 1978, dated 1982)
Where a name gives a salt, the structure may show the parent alone.

Tested on: thromboxane synthetase
Experiment: inhibitory action for thromboxane synthetase (prior art compounds)
Type: biochemical
Conditions: not completely satisfactory as a practical medication
From the text: However, since their inhibitory action for thromboxane synthetase is weak, these compounds are hardly applicable as practically effective medicines.
On the other hand, N-(6-methoxycarbonylhexyl)imidazole has already been synthesized by P. Matthias et al, and publicly known [Monatsch Chem., 108(5), 1059(1977)].

Row | Structure (SMILES) | inhibitory effect on thromboxane synthetase compared with imidazole or 1-methylimidazole
1 | COC(=O)CCCCCCn1ccnc1 [N-(6-methoxycarbonylhexyl)imidazole] | stronger inhibitory effect

Tested on: not listed separately
Experiment: acute toxicity test, LD50 in mice
Conditions: mouse, in vivo, iv

Row | Structure (SMILES) | LD50 [mg/kg]
2 | CC(CCCCCn1ccnc1)C(C)C(=O)O.Cl (stereo not shown) [1-(7-carboxy-6-methyloctyl)imidazole hydrochloride] | 330

Tested on: arachidonic acid-induced sudden deaths
Experiment: inhibitory effect on arachidonic acid-induced sudden deaths of rabbits
Type: in vivo
Conditions: oral administration, 100 mg/kg animal body weight

Row | Structure (SMILES) | inhibitory effect on arachidonic acid-induced sudden deaths of rabbits
3 | CC(CCCCCCn1ccnc1)C(=O)O.Cl (racemic) [1-[(7RS)-7-carboxyoctyl]imidazole hydrochloride] | inhibitory effect
4 | Cl.O=C(O)CCCCC#CCn1ccnc1 [1-(7-carboxy-2-heptynyl)imidazole hydrochloride] | inhibitory effect
5 | CC(C)(CCCCCCn1ccnc1)C(=O)O.Cl [1-(7-carboxy-7-methyloctyl)imidazole hydrochloride] | inhibitory effect

Target: T1, thromboxane synthetase from rabbit platelet microsomes (Oryctolagus cuniculus, UniProt G1TAZ9)
T1 construct: thromboxane synthetase from rabbit platelet microsomes; from tissue; host or cells: rabbit platelet microsomes
T1 sequence (G1TAZ9 1-530): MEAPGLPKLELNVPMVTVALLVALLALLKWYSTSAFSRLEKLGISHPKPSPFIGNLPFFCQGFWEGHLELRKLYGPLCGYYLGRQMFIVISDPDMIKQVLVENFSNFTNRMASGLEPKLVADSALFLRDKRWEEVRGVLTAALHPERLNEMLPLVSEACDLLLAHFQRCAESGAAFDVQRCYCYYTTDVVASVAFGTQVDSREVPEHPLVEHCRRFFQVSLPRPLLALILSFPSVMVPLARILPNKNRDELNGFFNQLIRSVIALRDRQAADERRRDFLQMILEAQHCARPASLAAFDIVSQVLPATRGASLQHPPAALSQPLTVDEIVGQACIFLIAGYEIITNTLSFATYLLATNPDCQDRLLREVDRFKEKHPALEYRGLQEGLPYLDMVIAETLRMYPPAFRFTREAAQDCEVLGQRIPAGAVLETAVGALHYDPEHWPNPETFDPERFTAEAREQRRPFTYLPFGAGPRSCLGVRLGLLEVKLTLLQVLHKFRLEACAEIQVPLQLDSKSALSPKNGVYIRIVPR
Experiment: inhibition of thromboxane synthetase from rabbit platelet microsomes (conversion of prostaglandin H2 into thromboxane B2)
Type: biochemical
Conditions: not given

Row | Structure (SMILES) | IC50 [nM]
6 | CCOC(=O)C(C)CCCCCCn1ccnc1 (racemic) [1-[(7RS)-7-ethoxycarbonyloctyl]imidazole] | 200
7 | O=C(O)CCCC/C=C\Cn1ccnc1 [(Z)-1-(7-carboxy-2-heptenyl)imidazole hydrochloride] | 56
8 | CC(C)(CCCCn1ccnc1)CCC(=O)O [1-(7-carboxy-5,5-dimethylheptyl)imidazole hydrochloride] | 71
9 | CCOC(=O)/C=C/CCCCCn1ccnc1 [(E)-1-(7-ethoxycarbonyl-6-heptenyl)imidazole] | 2800
10 | CCCCC(CCCn1ccnc1)C(=O)OCC (racemic) [1-[(4RS)-4-ethoxycarbonyloctyl]imidazole] | 130
11 | CCOC(=O)C(C)(C)CCCCCCn1ccnc1 [1-(7-ethoxycarbonyl-7-methyloctyl)imidazole] | 1000
12 | O=C(O)/C=C/CCCCCn1ccnc1 [(E)-1-(7-carboxy-6-heptenyl)imidazole hydrochloride] | 70
13 | CC(CCCCCCn1ccnc1)C(=O)O.Cl (racemic) [1-[(7RS)-7-carboxyoctyl]imidazole hydrochloride] | 30
14 | O=C(O)/C=C\CCCCCn1ccnc1 [(Z)-1-(7-carboxy-6-heptenyl)imidazole hydrochloride] | 16
15 | CC(C)(CCCCCCC(=O)O)n1ccnc1 [1-(7-carboxy-1,1-dimethylheptyl)imidazole hydrochloride] | 90
16 | CC(CCCCCn1ccnc1)CC(=O)O (racemic) [1-[(6RS)-7-carboxy-6-methylheptyl]imidazole hydrochloride] | 48
